According to patent publication US20140005165A1, “SUBSTITUTED 3-AZABICYCLO[3.1.0]HEXANE DERIVATIVES USEFUL AS CCR2 ANTAGONISTS” (priority 2011, published 2014):

What follows are compounds tested against T1, human CCR2 (Homo sapiens, UniProt P41597) (assay: CCR2 Membrane Binding Assay (SPA radio-ligand binding, 125I-rhMCP-1)). Details: membranes from Ba/F3 cells transfected with human CCR2; 0.03 nM 125I-rhMCP-1; 4 h room temperature.
T1 construct: expressed in transfected cells; host or cells: Ba/F3 cells (membrane preparation)
T1 sequence (P41597 whole entry): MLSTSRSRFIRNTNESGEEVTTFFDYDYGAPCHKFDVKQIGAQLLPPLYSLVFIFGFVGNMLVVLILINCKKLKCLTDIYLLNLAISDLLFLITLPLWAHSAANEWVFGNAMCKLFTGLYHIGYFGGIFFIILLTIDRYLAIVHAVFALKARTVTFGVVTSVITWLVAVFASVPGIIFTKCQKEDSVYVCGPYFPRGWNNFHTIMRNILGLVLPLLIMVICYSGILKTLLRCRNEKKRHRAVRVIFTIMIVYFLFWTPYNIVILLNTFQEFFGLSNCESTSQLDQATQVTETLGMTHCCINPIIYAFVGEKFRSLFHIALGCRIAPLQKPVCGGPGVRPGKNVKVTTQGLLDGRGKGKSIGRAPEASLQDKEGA
Procedure: The radio-ligand binding assay was done using scintillation proximity assay (SPA) technology. Briefly, membranes (1 μg per assay point) from Ba/F3 cells transfected with human CCR2, and wheat germ agglutinin-coated SPA beads (80 μg per point; Amersham, Arlington Heights, Ill.), were pre-incubated for 30 min at room temperature in CCR2 buffer (50 mM HEPES (pH=7.4), 10 mM MgCl2, 10 mM NaCl, 1 mM CaCL2, 0.1% BSA, 10 μg/ml Saponin). At this point pre-bound SPA bead, membrane complex was incubated at room temperature for 4 h with varying concentrations of punitive CCR2 antagonists (in 1% DMSO, final) and 0.03 nM ^125I-rhMCP-1 in CCR2Buffer (S.A. 2200 Ci/mmol, PerkinElmer Life and Analytical Science, Boston, Mass.; NEX332). Binding competition was measured using a 1450 Microbeta Trilux counter (Wallac, Gaithersburg, Md.). Binding constants (IC50 and slope) were calculated using GraphPad Prism software (GraphPad Software, Inc., La Jolla Calif.).
`O=C(CNC(=O)[C@H]1[C@@H]2CN(C3CCC(c4ccccc4)CC3)C[C@@H]21)Nc1cccc(C(F)(F)F)c1` (stereo partly shown) [Compound 4] gave an IC50 of 3.5 nM. Work on `O=C(CNC(=O)[C@H]1[C@@H]2CN([C@H]3CC[C@@H](c4ccc(F)cc4)CC3)C[C@@H]21)Nc1cccc(C(F)(F)F)c1` [Compound 119] yielded an IC50 of 6.1 nM. Work on `O=C(CNC(=O)[C@H]1[C@@H]2CN([C@H]3CC[C@@H](NC(=O)OCc4ccccc4)CC3)C[C@@H]21)Nc1cccc(C(F)(F)F)c1` [Compound 154] yielded an IC50 of 8.3 nM. Work on `O=C(CNC(=O)[C@H]1[C@@H]2CN([C@H]3CC[C@@H](c4ccc5c(c4)OCO5)CC3)C[C@@H]21)Nc1cccc(C(F)(F)F)c1` [Compound 143] yielded an IC50 of 4.1 nM.

Same assay, conditions: membranes from Ba/F3 cells transfected with human CCR2; 0.03 nM 125I-rhMCP-1; class symbols
Work on `COc1ccc(C[C@H]2CC[C@@H](N3C[C@@H]4[C@H](C3)[C@H]4C(=O)NCC(=O)Nc3cccc(C(F)(F)F)c3)CC2)cc1` [Compound 145] yielded an IC50 of 51 to 200 nM. `O=C(CNC(=O)[C@H]1[C@@H]2CN(C3C[C@@H]4CC[C@H]3C4)C[C@@H]21)Nc1cccc(C(F)(F)F)c1` (stereo partly shown) [Compound 27] was tested, and the IC50 was 51 to 200 nM. `O=C(CNC(=O)[C@H]1[C@@H]2CN(C3CCCC(c4ccccc4)C3)C[C@@H]21)Nc1cccc(C(F)(F)F)c1` (stereo partly shown) [Compound 80] was tested, and the “IC50 (nM)” value was “D (compounds with IC50 values between 701 nM and 110 nM are designated as D class compounds)”. `CC(C)N1C[C@@H]2[C@H](C1)[C@H]2C(=O)NCC(=O)Nc1cccc(C(F)(F)F)c1` [Compound 93] showed an IC50 of 51 to 200 nM. For `O=C(NCCc1cccc(C(F)(F)F)c1)C1[C@H]2CN(C3CCCCC3)C[C@@H]12` (stereo partly shown) [Compound 1], the IC50 was 51 to 200 nM. With `O=C(CNC(=O)[C@H]1[C@@H]2CN(C3CCC(O)(c4nccs4)CC3)C[C@@H]21)Nc1cccc(C(F)(F)F)c1` (stereo partly shown) [Compound 122] the IC50 was 51 to 200 nM. With `O=C(NCCc1cc(C(F)(F)F)cc(C(F)(F)F)c1)[C@H]1[C@@H]2CN([C@H]3CC[C@@H](c4ccccc4)CC3)C[C@@H]21` [Compound 135] the IC50 was 201 to 700 nM. With `O=C(CNC(=O)C1C2CN(C3CCOCC3)CC21)Nc1cccc(C(F)(F)F)c1` (stereo not shown) [Compound 21] the IC50 was 51 to 200 nM. With `O=C([C@H]1[C@@H]2CN([C@H]3CC[C@@H](c4ccccc4)CC3)C[C@@H]21)N1CCC(c2cccc(C(F)(F)F)c2)CC1` [Compound 106] the “IC50 (nM)” value was “D (compounds with IC50 values between 701 nM and 110 nM are designated as D class compounds)”. In the case of `O=C(NCc1cccc(C(F)(F)F)c1)[C@H]1[C@@H]2CN([C@H]3CC[C@@H](c4ccccc4)CC3)C[C@@H]21` [Compound 42], the IC50 is reported as 51 to 200 nM. `O=C(CNC(=O)[C@H]1[C@@H]2CN(C3CC[C@H](c4ccccc4)C3)C[C@@H]21)Nc1cccc(C(F)(F)F)c1` (stereo partly shown) [Compound 64] gave an IC50 of 51 to 200 nM. `O=C(N[C@@H]1CCN(c2nccc(C(F)(F)F)n2)C1)[C@H]1[C@@H]2CN([C@H]3CC[C@@H](c4ccccc4)CC3)C[C@@H]21` [Compound 112] was tested, and the IC50 was 201 to 700 nM. For `O=C([C@H]1[C@@H]2CN([C@H]3CC[C@@H](c4ccccc4)CC3)C[C@@H]21)N1CCc2ncc(C(F)(F)F)cc2C1` [Compound 61], the IC50 was 201 to 700 nM. `O=C(CNC(=O)[C@H]1[C@@H]2CN([C@H]3CC[C@H](c4ccccn4)CC3)C[C@@H]21)Nc1cccc(C(F)(F)F)c1` [Compound 84] showed an IC50 of 201 to 700 nM. Compound `O=C(CNC(=O)[C@H]1[C@@H]2CN(C3CC(COCc4ccccc4)C3)C[C@@H]21)Nc1cccc(C(F)(F)F)c1` (stereo partly shown) [Compound 116] has an IC50 of 201 to 700 nM. `O=C(CNC(=O)[C@H]1[C@@H]2CN(C3CCCOC3)C[C@@H]21)Nc1cccc(C(F)(F)F)c1` (stereo partly shown) [Compound 22] gave an IC50 of 51 to 200 nM. With `O=C(CNC(=O)[C@H]1[C@@H]2CN(C3CCCCCC3)C[C@@H]21)Nc1cccc(C(F)(F)F)c1` [Compound 33] the IC50 was 201 to 700 nM. Compound `CC1(C)CCCC(N2C[C@@H]3[C@H](C2)[C@H]3C(=O)NCC(=O)Nc2cccc(C(F)(F)F)c2)C1` (stereo partly shown) [Compound 38] has an IC50 of 201 to 700 nM. With `CC=C1CCC(N2C[C@@H]3[C@H](C2)[C@H]3C(=O)NCC(=O)Nc2cccc(C(F)(F)F)c2)CC1` (stereo partly shown) [Compound 37] the “IC50 (nM)” value was “D (compounds with IC50 values between 701 nM and 110 nM are designated as D class compounds)”. `O=C(CNC(=O)[C@H]1[C@@H]2CN([C@H]3CC[C@H](c4ccc(OCc5ccccc5)cc4)CC3)C[C@@H]21)Nc1cccc(C(F)(F)F)c1` [Compound 161] was tested, and the IC50 was 201 to 700 nM. In the case of `O=C([C@H]1[C@@H]2CN([C@H]3CC[C@@H](c4ccccc4)CC3)C[C@@H]21)N1CCC(c2ccc(C(F)(F)F)cc2)C1` (stereo partly shown) [Compound 73], the IC50 is reported as 51 to 200 nM. For `O=C(CNC(=O)[C@H]1[C@@H]2CN(CC3CC3)C[C@@H]21)Nc1cccc(C(F)(F)F)c1` [Compound 158], the “IC50 (nM)” value was “D (compounds with IC50 values between 701 nM and 110 nM are designated as D class compounds)”. For `O=C(CNC(=O)[C@H]1[C@@H]2CN([C@H]3CC[C@H](c4cccs4)CC3)C[C@@H]21)Nc1cccc(C(F)(F)F)c1` [Compound 100], the IC50 was 201 to 700 nM. `CC(C)(C)OC(=O)[C@H]1CC[C@@H](N2C[C@@H]3[C@H](C2)[C@H]3C(=O)NCC(=O)Nc2cccc(C(F)(F)F)c2)CC1` [Compound 124] gave an IC50 of 201 to 700 nM. With `O=C(CNC(=O)[C@H]1[C@@H]2CN([C@H]3CC[C@@H](NC(=O)c4ccccc4)CC3)C[C@@H]21)Nc1cccc(C(F)(F)F)c1` [Compound 141] the IC50 was < 50 nM. Compound `CC1CCC(N2C[C@@H]3[C@H](C2)[C@H]3C(=O)NCC(=O)Nc2cccc(C(F)(F)F)c2)C1` (stereo partly shown) [Compound 19] has an IC50 of 201 to 700 nM. `O=C([C@H]1[C@@H]2CN([C@H]3CC[C@@H](c4ccccc4)CC3)C[C@@H]21)N1CC(c2cccc(C(F)(F)F)c2)C1` [Compound 59] was tested, and the IC50 was 201 to 700 nM. `O=C([C@H]1[C@@H]2CN([C@H]3CC[C@@H](c4ccccc4)CC3)C[C@@H]21)N1CCC(c2cccc(C(F)(F)F)c2)C1` (stereo partly shown) [Compound 71] was tested, and the IC50 was < 50 nM. `COC(=O)[C@H]1CC[C@H](N2C[C@@H]3[C@H](C2)[C@H]3C(=O)NCC(=O)Nc2cccc(C(F)(F)F)c2)CC1` [Compound 58] showed an IC50 of 201 to 700 nM. `O=C(NCCc1ccccc1)[C@H]1[C@@H]2CN([C@H]3CC[C@@H](c4ccccc4)CC3)C[C@@H]21` [Compound 10] was tested, and the “IC50 (nM)” value was “D (compounds with IC50 values between 701 nM and 110 nM are designated as D class compounds)”. For `O=C([C@H]1[C@@H]2CN([C@H]3CC[C@@H](c4ccccc4)CC3)C[C@@H]21)N1CC(Oc2ccc(Cl)c(Cl)c2)C1` [Compound 77], the IC50 was 51 to 200 nM. For `O=C(NCC1(c2cccc(C(F)(F)F)c2)CC1)[C@H]1[C@@H]2CN([C@H]3CC[C@@H](c4ccccc4)CC3)C[C@@H]21` [Compound 74], the IC50 was 201 to 700 nM. `O=C(CNC(=O)[C@H]1[C@@H]2CN(C3CC=C(c4ccc5c(c4)OCO5)CC3)C[C@@H]21)Nc1cccc(C(F)(F)F)c1` (stereo partly shown) [Compound 139] was tested, and the IC50 was 201 to 700 nM. In the case of `O=C(CNC(=O)[C@H]1[C@@H]2CN([C@H]3CC[C@@H](c4cnc(O)nc4)CC3)C[C@@H]21)Nc1cccc(C(F)(F)F)c1` [Compound 118], the IC50 is reported as 201 to 700 nM. `O=C([C@H]1[C@@H]2CN([C@H]3CC[C@@H](c4ccccc4)CC3)C[C@@H]21)N1CCC(Nc2ncc(C(F)(F)F)cn2)C1` (stereo partly shown) [Compound 113] showed an IC50 of 201 to 700 nM. `Cc1[nH]c2c(C(F)(F)F)cccc2c1CCNC(=O)[C@H]1[C@@H]2CN([C@H]3CC[C@@H](c4ccccc4)CC3)C[C@@H]21` [Compound 125] showed an IC50 of 201 to 700 nM.
